As usually defined, the IC50 is the point on the concentration scale where inhibition reaches its midpoint.

The values below come from patent US8324245B2, “Quinoline derivative and quinazoline derivative inhibiting self-phosphorylation of hepatocytus proliferator receptor, and medicinal composition containing the same” (Kyowa Hakko Kirin Co., Ltd., priority 2001, dated 2012).

This assay addresses T1, met (HGF receptor) in human gastric cancer cells MKN45 (Homo sapiens, UniProt P08581).
T1 construct: endogenous in cells; host or cells: MKN45 human gastric cancer cells
As to the kind of experiment: Inhibitory activity against met-autophosphorylation using ELISA method (2), MKN45 cells, HGF-independent. The format is cell-based. The procedure: Cells were cultured with RPMI medium containing 0.1% fetal calf serum in 96-well flat-bottom plate in an amount of 3×10^4 per well, and were incubated at 37° C. overnight. The medium was then replaced by a fresh RPMI medium containing 0.1% fetal calf serum. A solution of the test compound in dimethyl sulfoxide was added to each well, and the incuvation was continued at 37° C. for additional one hr. The medium was removed, the cells were washed with phosphate buffered saline (pH 7.4), and 50 μl of a lysis buffer (20 mM HEPES (pH 7.4), 150 mM NaCl, 0.2% Triton X-100, 10% glycerol, 5 mM sodium orthovanadylate, 5 mM disodium ethylenediaminetetraacetate, and 2 mM Na4P2O7) was then added thereto. The mixture was shaken at 4° C. for 2 hr to prepare a cell extract.
Separately, phosphate buffered saline (50 μl, pH 7.4) containing 5 μg/ml of anti-phospho-tyrosine antibody (PY20; purchased from Transduction Laboratories) was added to a microplate for ELISA (Maxisorp; purchased from NUNC), followed by gentle agitation at 4° C. overnight to coat the surface of the wells with the antibody. After washing of the plate, 300 μl of a blocking solution was added, followed by gentle agitation at room temperature for 2 hr to perform blocking. After washing, the whole quantity of the cell extract was transferred to the wells, and the plate was then allowed to stand at 4° C. overnight. After washing, an anti-HGF receptor antibody (h-Met (C-12), purchased from Santa Cruz Biotechnology) was allowed to react at room temperature for one hr, and, after washing, a peroxidase-labeled anti-rabbit Ig antibody (purchased from Amersham) was allowed to react at room temperature for one hr. After washing, a chromophoric substrate for peroxidase (purchased from Sumitomo Bakelite Co., Ltd.) was added thereto to initiate a reaction. After a suitable level of color development, a reaction termination solution was added to stop the reaction, and the absorbance at 450 nm was measured with a microplate reader.
For orientation: ELISA stands for enzyme-linked immunosorbent assay.

T1 sequence (P08581 25-1390): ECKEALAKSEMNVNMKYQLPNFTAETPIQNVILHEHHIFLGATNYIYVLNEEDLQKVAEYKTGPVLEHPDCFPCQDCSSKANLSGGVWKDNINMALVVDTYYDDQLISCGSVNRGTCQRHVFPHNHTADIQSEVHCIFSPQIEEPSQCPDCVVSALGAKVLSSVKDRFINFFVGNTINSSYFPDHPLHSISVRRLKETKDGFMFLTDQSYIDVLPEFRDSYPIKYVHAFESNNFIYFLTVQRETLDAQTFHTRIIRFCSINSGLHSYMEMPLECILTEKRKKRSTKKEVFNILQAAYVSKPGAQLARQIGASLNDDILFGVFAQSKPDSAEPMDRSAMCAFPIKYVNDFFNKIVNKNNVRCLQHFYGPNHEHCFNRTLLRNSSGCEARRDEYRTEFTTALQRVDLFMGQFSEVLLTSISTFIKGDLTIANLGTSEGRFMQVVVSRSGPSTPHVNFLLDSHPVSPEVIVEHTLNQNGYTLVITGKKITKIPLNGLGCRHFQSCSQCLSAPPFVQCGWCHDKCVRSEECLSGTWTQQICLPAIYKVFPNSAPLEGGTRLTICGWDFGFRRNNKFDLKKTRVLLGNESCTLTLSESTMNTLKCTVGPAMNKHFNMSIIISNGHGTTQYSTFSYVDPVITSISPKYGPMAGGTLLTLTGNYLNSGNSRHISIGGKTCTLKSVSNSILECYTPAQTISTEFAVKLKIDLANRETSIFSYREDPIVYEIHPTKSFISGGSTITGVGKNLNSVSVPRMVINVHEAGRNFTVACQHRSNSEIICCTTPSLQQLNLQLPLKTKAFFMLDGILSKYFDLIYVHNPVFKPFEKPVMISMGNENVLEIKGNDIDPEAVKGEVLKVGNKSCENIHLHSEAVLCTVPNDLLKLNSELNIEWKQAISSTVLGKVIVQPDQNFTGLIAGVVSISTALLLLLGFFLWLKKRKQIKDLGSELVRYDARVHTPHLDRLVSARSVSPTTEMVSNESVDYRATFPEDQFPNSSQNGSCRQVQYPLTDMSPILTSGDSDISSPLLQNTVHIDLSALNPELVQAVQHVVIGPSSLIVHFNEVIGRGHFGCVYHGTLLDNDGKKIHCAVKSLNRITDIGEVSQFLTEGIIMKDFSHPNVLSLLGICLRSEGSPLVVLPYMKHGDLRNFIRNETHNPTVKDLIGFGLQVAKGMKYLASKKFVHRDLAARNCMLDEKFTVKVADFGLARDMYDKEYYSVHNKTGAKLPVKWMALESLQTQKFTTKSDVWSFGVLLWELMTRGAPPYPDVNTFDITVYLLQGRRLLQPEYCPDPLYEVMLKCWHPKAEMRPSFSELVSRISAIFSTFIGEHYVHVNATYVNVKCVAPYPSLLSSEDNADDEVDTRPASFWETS

Turning to `COc1cc2nccc(Oc3ccc(NC(=O)NC(=O)Cc4ccc(F)c(F)c4)cc3)c2cc1OC` [Example 39, 1-[2-(3,4-difluorophenyl)acetyl]-3-[4-(6,7-dimethoxyquinolin-4-yloxy)phenyl]urea], the IC50 stood at 114 nM.
`COc1cc2c(Oc3ccc(NC(=O)NC(=O)Cc4ccc(F)cc4)c(F)c3)ccnc2cc1OCc1ccccc1` [Example 40, N-(4-{[7-(Benzyloxy)-6-methoxy-4-quinolyl]oxy}-2-fluorophenyl)-N′-[2-(4-fluorophenyl)acetyl]urea] yielded an IC50 of 242 nM.
With `COc1cc2c(Oc3ccc(NC(=O)NC(=O)Cc4ccc(F)cc4)cc3F)ccnc2cc1OCCCCN1CCOCC1` [Example 41, 1-{3-fluoro-4-[6-methoxy-7-(4-morpholin-4-yl-butoxy)quinolin-4-yloxy]phenyl}-3-[2-(4-fluorophenyl)-acetyl]urea] the figure was 281 nM.
With `COc1cc2c(Oc3ccc(NC(=O)NC(=O)Cc4ccc(F)cc4)cc3F)ccnc2cc1OCCCCN1CCCCC1` [Example 42, 1-{3-fluoro-4-[6-methoxy-7-(4-piperidine-1-yl-butoxy)quinolin-4-yloxy]phenyl}-3-[2-(4-fluorophenyl)-acetyl]urea] the figure was 190 nM; with `COc1cc2c(Oc3ccc(NC(=O)NC(=O)Cc4ccc(F)cc4)cc3F)ccnc2cc1OCCCCN1CCN(C)CC1` [Example 43, 1-(3-fluoro-4-{6-methoxy-7-[4-(4-methyl-piperazin-1-yl)-butoxy]quinolin-4-yloxy}phenyl)-3-[2-(4-fluorophenyl)acetyl]urea], 167 nM.
The compound `COc1cc2c(Oc3ccc(NC(=O)NC(=O)Cc4ccc(F)cc4)c(F)c3)ccnc2cc1OCCCCN1CCOCC1` [Example 44, 1-{2-fluoro-4-[6-methoxy-7-(4-morpholin-4-yl-butoxy)quinolin-4-yloxy]phenyl}-3-[2-(4-fluorophenyl)-acetyl]urea] came in with an IC50 of 291 nM.
In turn, `COc1cc2c(Oc3ccc(NC(=O)NC(=O)Cc4ccc(F)cc4)c(F)c3)ccnc2cc1OCCCCN1CCCCC1` [Example 45, 1-{2-fluoro-4-[6-methoxy-7-(4-piperidine-1-yl-butoxy)quinolin-4-yloxy]phenyl}-3-[2-(4-fluorophenyl)-acetyl]urea] gave an IC50 of 207 nM.
With `COc1cc2c(Oc3ccc(NC(=O)NC(=O)Cc4ccc(F)cc4)cc3F)ccnc2cc1OCCCN1CCOCC1` [Example 46, 1-{3-fluoro-4-[6-methoxy-7-(3-morpholin-4-yl-propoxy)quinolin-4-yloxy]phenyl}-3-[2-(4-fluorophenyl)-acetyl]urea] the figure was 229 nM; with `COc1cc2c(Oc3ccc(NC(=O)NC(=O)Cc4ccc(F)cc4)cc3F)ccnc2cc1OCCCN1CCCCC1` [Example 47, 1-{3-fluoro-4-[6-methoxy-7-(3-piperidin-1-yl-propoxy)quinolin-4-yloxy]phenyl}-3-[2-(4-fluorophenyl)-acetyl]urea], 215 nM; with `COc1cc2c(Oc3ccc(NC(=O)NC(=O)Cc4ccc(F)cc4)cc3F)ccnc2cc1OCCN1CCCCC1` [Example 48, 1-{3-fluoro-4-[6-methoxy-7-(2-piperidin-1-yl-ethoxy)quinolin-4-yloxy]phenyl}-3-[2-(4-fluorophenyl)-acetyl]urea], 224 nM.
With `COc1cc2c(Oc3ccc(NC(=O)NC(=O)Cc4ccc(F)cc4)cc3F)ccnc2cc1OCCN1CCN(C)CC1` [Example 49, 1-(3-fluoro-4-{6-methoxy-7-[2-(4-methyl-piperazin-1-yl)-ethoxy]quinolin-4-yloxy}phenyl)-3-[2-(4-fluorophenyl)acetyl]urea] the figure was 51.4 nM; with `COc1cc2c(Oc3ccc(NC(=O)NC(=O)Cc4ccc(F)cc4)c(F)c3)ccnc2cc1OCCCN1CCCCC1` [Example 50, 1-{2-fluoro-4-[6-methoxy-7-(3-piperidin-1-yl-propoxy)quinolin-4-yloxy]phenyl}-3-[2-(4-fluorophenyl)-acetyl]urea], 235 nM; with `COc1cc2c(Oc3ccc(NC(=O)NC(=O)Cc4ccc(F)cc4)c(F)c3)ccnc2cc1OCCCN1CCN(C)CC1` [Example 51, 1-(2-fluoro-4-{6-methoxy-7-[3-(4-methyl-piperazin-1-yl)-propoxy]quinolin-4-yloxy}phenyl)-3-[2-(4-fluorophenyl)acetyl]urea], 203 nM.
With `COc1cc2c(Oc3ccc(NC(=O)NC(=O)Cc4ccccc4)cc3F)ccnc2cc1OCCCN1CCCCC1` [Example 52, 1-{3-fluoro-4-[6-methoxy-7-(3-piperidin-1-yl-propoxy)quinolin-4-yloxy]phenyl}-3-phenylacetylurea] the figure was 171 nM; with `COc1cc2c(Oc3ccc(NC(=O)NC(=O)Cc4ccccc4)cc3F)ccnc2cc1OCCCN1CCN(C)CC1` [Example 53, 1-(3-fluoro-4-{6-methoxy-7-[3-(4-methyl-piperazin-1-yl)-propoxy]quinolin-4-yloxy}phenyl)-3-phenylacetylurea], 37.4 nM; with `COc1cc2c(Oc3ccc(NC(=O)NC(=O)Cc4ccccc4)cc3F)ccnc2cc1OCCN1CCOCC1` [Example 54, 1-{3-fluoro-4-[6-methoxy-7-(2-morpholin-4-yl-ethoxy)quinolin-4-yloxy]phenyl}-3-phenylacetylurea], 26.1 nM.
With `COc1cc2c(Oc3ccc(NC(=O)NC(=O)Cc4ccc(F)cc4)cc3F)ccnc2cc1OCCN1CCOCC1` [Example 55, 1-{3-fluoro-4-[6-methoxy-7-(2-morpholin-4-yl-ethoxy)quinolin-4-yloxy]phenyl}-3-[2-(4-fluorophenyl)-acetyl]urea], the IC50 came out at 245 nM.
With `COc1cc2nccc(Oc3ccc(NC(=S)NC(=O)c4cccc5ccccc45)cc3)c2cc1OC` [Example 56, 1-[4-(6,7-dimethoxyquinolin-4-yloxy)phenyl]-3-(naphthalene-1-carbonyl)thiourea] the figure was 140 nM; with `COc1cc2nccc(Oc3ccc(NC(=S)NC(=O)c4cccc5ccccc45)c(F)c3)c2cc1OC` [Example 57, 1-[4-(6,7-dimethoxyquinolin-4-yloxy)-2-fluoro-phenyl]-3-(naphthalene-1-carbonyl)thiourea], 132 nM; with `COc1cc2nccc(Oc3ccc(NC(=S)NC(=O)Cc4ccccc4)c(F)c3)c2cc1OC` [Example 58, 1-[4-(6,7-dimethoxyquinolin-4-yloxy)-2-fluorophenyl]-3-phenylacetylthiourea], 27 nM.
The compound `COc1cc2nccc(Oc3ccc(NC(=S)NC(=O)Cc4ccccc4Cl)cc3)c2cc1OC` [Example 59, 1-[2-(2-chlorophenyl)acetyl]-3-[4-(6,7-dimethoxyquinolin-4-yloxy)phenyl]thiourea] gave an IC50 of 193 nM.
`COc1cc2nccc(Oc3ccc(NC(=S)NC(=O)CC4CCCCC4)cc3)c2cc1OC` [Example 61, 1-(2-cyclohexylacetyl)-3-[4-(6,7-dimethoxy-quinolin-4-yloxy)phenyl]thiourea]: inhibition was half-maximal at 113 nM (IC50).
The compound `CCOCCC(=O)NC(=S)Nc1ccc(Oc2ccnc3cc(OC)c(OC)cc23)cc1` [Example 62, 1-[4-(6,7-dimethoxyquinolin-4-yloxy)phenyl]-3-(3-ethoxypropionyl)thiourea] registered an IC50 of 92 nM.
Then `COc1cc2nccc(Oc3ccc(NC(=S)NC(=O)Cc4ccccc4)cc3Cl)c2cc1OC` [Example 63, 1-[3-chloro-4-(6,7-dimethoxyquinolin-4-yloxy)-phenyl]-3-phenylacetylthiourea], with 24.4 nM.
Then `COc1cc2nccc(Oc3ccc(NC(=S)NC(=O)CCc4ccccc4C)cc3F)c2cc1OC` [Example 64, 1-[4-(6,7-dimethoxyquinolin-4-yloxy)-3-fluoro-phenyl]-3-(3-o-tolylpropionyl)thiourea], with 140 nM; and `COc1cc2nccc(Oc3ccc(NC(=S)NC(=O)Cc4ccccc4)c(Cl)c3)c2cc1OC` [Example 65, 1-[2-chloro-4-(6,7-dimethoxyquinolin-4-yloxy)-phenyl]-3-phenylacetylthiourea], with 66.3 nM.
With `COc1cc2nccc(Oc3ccc(NC(=S)NC(=O)Cc4cccs4)cc3)c2cc1OC` [Example 66, 1-[4-(6,7-dimethoxyquinolin-4-yloxy)phenyl]-3-(2-thiophen-2-ylacetyl)thiourea], the IC50 turned out to be 79.2 nM.
Then `COc1cc2nccc(Oc3ccc(NC(=S)NC(=O)Cc4ccccc4)cc3C)c2cc1OC` [Example 67, 1-[4-(6,7-dimethoxyquinolin-4-yloxy)-3-methyl-phenyl]-3-phenylacetylthiourea], with 19.7 nM; and `COc1cc2nccc(Oc3ccc(NC(=S)NC(=O)Cc4ccccc4)cc3OC)c2cc1OC` [Example 68, 1-[4-(6,7-dimethoxyquinolin-4-yloxy)-3-methoxyphenyl]-3-phenylacetylthiourea], with 194 nM.
Then `COc1cc(Oc2ccnc3cc(OC)c(OC)cc23)ccc1NC(=S)NC(=O)Cc1ccccc1` [Example 69, 1-[4-(6,7-dimethoxyquinolin-4-yloxy)-2-methoxyphenyl]-3-phenylacetylthiourea], with 4.4 nM.
